Earlier results as cited in patent publication US11590237B2, “Pharmaceutical formulation comprising incretin-insulin conjugates” (Merck Sharp & Dohme Corp., priority 2017, dated 2023).

Conditions: literature data [21]

Number of monomers in oligomers: 6-12 monomers
SMILES: CCCCCCCCCCCCCCCC(=O)N[C@@H](CCC(=O)NCCCC[C@H](NC(=O)[C@H](C)NC(=O)[C@H](C)NC(=O)[C@H](CCC(N)=O)NC(=O)CNC(=O)[C@H](CCC(=O)O)NC(=O)[C@H](CC(C)C)NC(=O)[C@H](Cc1ccc(O)cc1)NC(=O)[C@H](CO)NC(=O)[C@H](CO)NC(=O)[C@@H](NC(=O)[C@H](CC(=O)O)NC(=O)[C@H](CO)NC(=O)[C@@H](NC(=O)[C@H](Cc1ccccc1)NC(=O)[C@@H](NC(=O)CNC(=O)[C@H](CCC(=O)O)NC(=O)[C@H](C)NC(=O)[C@@H](N)Cc1cnc[nH]1)[C@@H](C)O)[C@@H](C)O)C(C)C)C(=O)N[C@@H](CCC(=O)O)C(=O)N[C@@H](Cc1ccccc1)C(=O)N[C@H](C(=O)N[C@@H](C)C(=O)N[C@@H](Cc1c[nH]c2ccccc12)C(=O)N[C@@H](CC(C)C)C(=O)N[C@H](C(=O)N[C@@H](CCCNC(=N)N)C(=O)NCC(=O)N[C@@H](CCCNC(=N)N)C(=O)NCC(=O)O)C(C)C)[C@@H](C)CC)C(=O)O [liraglutide]
